Read-outs that look alike come from different tables or passages of the source.
Experiments:
[1] = system: ACD sensitized L929 cells; assay: Assay for immunostimulatory effects: proinflammatory cytokine induced cell death after transfer of RAW 264.7 supernatant; assay type: cell-based, mouse; conditions: Table 4, extract 200 μg/ml, LPS 1 μg/ml, control 0
Description: The extracts […] to […] and SR-1 to SR-11 were subjected to biological screening in Mouse macrophage (RAW 264.7) cell and fibroblast (L929) cells for in vitro immunomodulatory activity. Following the treatment with sub toxic levels of the extract the percent death in the ACD sensitised cells was taken as end point.
The stock solution of the plant extract was prepared in specified solvent at a concentration of 50 mg/ml. The working concentration of 10 mg/ml solution was prepared in incomplete Dulbecco's Modified Eagle's Medium (DMEM) and filter sterilized for further use in the assays.
Mouse macrophage (RAW 264.7) cells and fibroblast (L929) cells were used in the in vitro assays. These were maintained in DMEM supplemented with 10% fetal calf serum (FCS) at 37° C. in a humidified atmosphere containing 5% CO2/95% air. The cells were sub cultured upon confluence.
Mouse macrophage (RAW 264.7) cells were plated at a cell density of 1×10^5 cells/well in a 96 well micro titer plate. After 24 h of incubation they were treated with filtered extract (200 μg/ml), Lipopolysaccharide (1 μg/ml) or media alone and incubated for a further period of 18-24 h. The supernatants as such or diluted ( 1/10th or 1/20th) were transferred to pre-incubated (24 h) L929 cells ([…]). […]

[2] = system: IL-6 production in RAW-264.7 Cells; assay: Estimation of IL-6 production by ELISA in macrophage supernatant; assay type: cell-based, mouse; conditions: Table 7; RAW 264.7 supernatant; control 542 ± 4
Description: (§1) This experiment was carried out to know whether the plant extract has stimulatory effects on the production of proinflammatory cytokines. Mouse macrophage cells, RAW 264.7 were cultured for 48 hours in the presence or in the absence of filtered plant extract. LPS was used as stimulant for proinflammatory cytokines TNF-∝ and IL-6. Supernatant of these samples were harvested immediately for estimations of TNF-∝ and IL-6 by an ELISA as per the manufacturer's protocol and recorded the results as concentrations in pg/ml.

RAW-264.7 Cells = assay: Nitric oxide (NO) estimation, nitrite released from mouse macrophage cells; assay type: cell-based; conditions: Table 5, 48 h, LPS 1 μg/ml, control 800 ± 50
Description: Macrophages are part of immune system (innate immunity) which phagocytose the intruder organism and kill them by release of toxic Nitric Oxide (NO). In this experiment, the ability of the plant extract to stimulate the macrophages for NO production was measured as nitrite released from mouse macrophage cells. Mouse macrophage cells were plated in 96-well culture plates (1×10^5 cells/well) and incubated for 24 h at 37° C. in a humidified atmosphere containing 5% CO2/95% air. The spent media from each well was aspirated and replenished with fresh media and further incubated for 48 h with desired concentration of extract in presence or in absence of Lipopolysaccharide (LPS 1 μg/ml). NO production in the supernatant was measured by micro plate assay. Cell supernatant was mixed with an equal volume of the Griess reagent (1% sulfanilaminde and 0.1% N-[napthyl]ethylenediamine dihydrochloride in 2.5% H3PO4) at room temperature for 10 min. The absorbance at 540 nm was determined in a microtiter plate reader (Anthos HT II). NO estimation was carried out using standard curve plotted against known quantity of […]. Results presented are in μM concentration obtained from mean OD of triplicate wells of each group.

[3] = system: TNF-α production in RAW-264.7 Cells; assay: Estimation of TNF-α production by ELISA in macrophage supernatant; assay type: cell-based, mouse; conditions: Table 6; RAW 264.7 supernatant; control 1662.00 ± 3.50
Description: as §1

[4] = target: snake venom Phosphodiesterase type I (Crotalus adamanteus, UniProt J3SEZ3); conditions: cited from earlier work
snake venom Phosphodiesterase type I, sequence (J3SEZ3 24-851 limits assumed): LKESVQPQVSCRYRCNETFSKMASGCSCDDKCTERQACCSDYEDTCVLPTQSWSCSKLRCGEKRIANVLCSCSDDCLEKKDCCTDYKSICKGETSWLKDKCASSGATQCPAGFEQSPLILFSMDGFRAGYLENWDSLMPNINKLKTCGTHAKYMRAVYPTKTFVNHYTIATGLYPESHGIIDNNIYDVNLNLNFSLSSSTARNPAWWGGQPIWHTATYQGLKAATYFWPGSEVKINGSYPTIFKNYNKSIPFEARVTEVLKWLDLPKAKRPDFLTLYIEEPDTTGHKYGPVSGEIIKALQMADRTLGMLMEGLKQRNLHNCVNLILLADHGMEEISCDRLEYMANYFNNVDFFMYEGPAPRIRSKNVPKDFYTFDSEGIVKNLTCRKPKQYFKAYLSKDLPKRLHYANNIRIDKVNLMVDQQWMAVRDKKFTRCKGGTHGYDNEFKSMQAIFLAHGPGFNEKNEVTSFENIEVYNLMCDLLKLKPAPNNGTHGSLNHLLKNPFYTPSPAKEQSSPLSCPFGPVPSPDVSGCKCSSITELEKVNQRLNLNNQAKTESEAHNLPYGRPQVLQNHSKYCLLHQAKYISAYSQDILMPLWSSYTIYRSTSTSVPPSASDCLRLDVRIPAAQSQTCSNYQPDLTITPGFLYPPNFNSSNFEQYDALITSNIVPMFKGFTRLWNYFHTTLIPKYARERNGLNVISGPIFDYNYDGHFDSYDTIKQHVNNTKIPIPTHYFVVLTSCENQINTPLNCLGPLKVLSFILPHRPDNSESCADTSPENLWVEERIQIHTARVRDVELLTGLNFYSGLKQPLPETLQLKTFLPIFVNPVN

[5] = Indian J. Chem, 1989; cited from earlier work
[6] = system: SRBC specific immunoglobulin; assay: Humoral response: haemagglutination antibody titre against SRBC in normal and immunocompromised rats; assay type: in vivo; conditions: Wistar rats, IMS-6 200 mg/Kg orally 14 days, SRBC ip day 10, Cyclophosphamide 400 mg/Kg ip day 12, serum day 14; control 3.278 ± 0.181
[7] = J. Chem. Soc., Pakistan, 1982; cited from earlier work

Lipopolysaccharide [LPS]
Proinflammatory Cytokine induced Cell Death (%) [1]: 79.0% | IL-6 Conc. [2]: 11187 ± 214 pg/mL | NO Levels (RAW-264.7 Cells): 2862.50 ± 87.50 µM | TNF ∝ Levels [3]: 3432.00 ± 140.50 pg/mL | TNF ∝ Levels (pg/ml) [3]: 3432.00 ± 140.50^• pg/ml

O=C(OCc1cc(O)ccc1O[C@@H]1O[C@H](CO)[C@@H](O)[C@H](O)[C@H]1O)c1ccccc1 [salireposide]
inhibitory activity against snake venom Phosphodiesterase type I ([4]; Ahmad et al. Phytochemistry, 2003): inhibitory activity

OC[C@H]1O[C@@H](Oc2cc(O)c3c(c2)O[C@H](c2ccc(O)cc2)[C@H](O)C3)[C@H](O)[C@@H](O)[C@@H]1O [Symposide]
antifibrinolytic activity [5]: showed antifibrinolytic activity

O=P1(N(CCCl)CCCl)NCCCO1 (stereo not shown) [Cyclophosphamide]
Antibody titre [6]: 0.444 ± 0.141

benzoylsalireposide
inhibitory activity against snake venom Phosphodiesterase type I [4]: inhibitory activity

C[C@H]1N[C@@H](CCCCCCCCCCC2=C[C@@H](CCCCCCCCCC[C@H]3CC[C@@H](O)[C@@H](C)N3)[C@@H]3CCCN3C2)CC[C@H]1O [Juliprosopine]
antibacterial activity [7]: exhibiting antibacterial activity
